# Data as given in patent publication US20120129928A1, “Chlorine-Free Liquid Microbicide Treatment” (University of Georgia Research Foundation, Inc., priority 2010, published 2012).
# “And” between values parts separate entries of the source, which are not always exact repeats. Identical values can stand only once. Like-named read-outs stand apart in the source and are kept apart here.
# Tests used:
# S. enteritidis = experiment: Reduction of S. enteritidis in water treated with organic acids and SDS; type: cell-based, Salmonella enteritidis
# various yeast species = experiment: Effect of levulinic acids plus SDS at 21° C. on various yeast species; type: cell-based; conditions: for Yeast counts at min: 1: 1 min; for Yeast counts at min: 2: 2 min; for Yeast counts at min: 5: 5 min; for Yeast counts at min: 10: 10 min; for Yeast counts at min: 20: 20 min; for Yeast counts at min: 30: 30 min; for Yeast counts at min: 60: 60 min
# S. typhimurium DT 104 = type: cell-based, Salmonella typhimurium DT104; conditions: water, 21° C.
# L. monocytogenes = type: cell-based, Listeria monocytogenes; conditions: 21° C.
# [1] = system: spores of Bacillus anthracis Sterne; type: cell-based, Bacillus anthracis Sterne (34F2)
# yeasts and molds = experiment: Yeast and mold (Y&M) counts on produce and in treatment solution, 4-L tank
# aerobic plate count = experiment: Aerobic plate counts (APC) on produce treated in a 4-L tank
# S. typhimurium = S. typhimurium counts on produce (apples, celery, onions, cantaloupes) and in treatment solution, 4-L tank
molecule,measurement,setting,value
"CC(=O)O [0.5% acetic acid, acetic acid]",S. enteritidis counts,"S. enteritidis; water, 21° C., 0 min",7.1 log CFU/ml
same,S. enteritidis counts,"S. enteritidis; water, 21° C., 2 min",7.0 log CFU/ml
same,S. enteritidis counts,"S. enteritidis; water, 21° C., 5 min",6.8 log CFU/ml
same,S. enteritidis counts,"S. enteritidis; water, 21° C., 10 min",6.7 log CFU/ml
same,S. enteritidis counts,"S. enteritidis; water, 21° C., 20 min",6.6 log CFU/ml
same,S. enteritidis counts,"S. enteritidis; water, 21° C., 30 min",6.5 log CFU/ml
CCCCCCCCCCCCOS(=O)(=O)[O-].[Na+] [1.0% SDS],Yeast counts at min: 1,various yeast species; Candida magnoliae,3.5 log CFU/ml
same,Yeast counts at min: 2,various yeast species; Candida magnoliae,3.3 log CFU/ml
same,Yeast counts at min: 5,various yeast species; Candida magnoliae,3.2 log CFU/ml
same,Yeast counts at min: 10,various yeast species; Candida magnoliae,3.2 log CFU/ml
same,Yeast counts at min: 20,various yeast species; Candida magnoliae,2.7 log CFU/ml
same,Yeast counts at min: 30,various yeast species; Candida magnoliae,3.0 log CFU/ml
same,Yeast counts at min: 60,various yeast species; Candida magnoliae,3.1 log CFU/ml
same,Yeast counts at min: 1,various yeast species; Debaryomyces hansenii,4.5 log CFU/ml
same,Yeast counts at min: 2,various yeast species; Debaryomyces hansenii,4.1 log CFU/ml
same,Yeast counts at min: 5,various yeast species; Debaryomyces hansenii,4.5 log CFU/ml
same,Yeast counts at min: 10,various yeast species; Debaryomyces hansenii,4.4 log CFU/ml
same,Yeast counts at min: 20,various yeast species; Debaryomyces hansenii,4.5 log CFU/ml
same,Yeast counts at min: 30,various yeast species; Debaryomyces hansenii,4.5 log CFU/ml
same,Yeast counts at min: 60,various yeast species; Debaryomyces hansenii,4.4 log CFU/ml
same,Yeast counts at min: 1,various yeast species; Geotrichum candidum,3.8 log CFU/ml
same,Yeast counts at min: 2,various yeast species; Geotrichum candidum,3.3 log CFU/ml
same,Yeast counts at min: 5,various yeast species; Geotrichum candidum,3.5 log CFU/ml
same,Yeast counts at min: 10,various yeast species; Geotrichum candidum,3.7 log CFU/ml
same,Yeast counts at min: 20,various yeast species; Geotrichum candidum,3.5 log CFU/ml
same,Yeast counts at min: 30,various yeast species; Geotrichum candidum,3.4 log CFU/ml
same,Yeast counts at min: 60,various yeast species; Geotrichum candidum,3.3 log CFU/ml
same,Yeast counts at min: 1,various yeast species; Saccharomyces cerevisiae,2.4 log CFU/ml
same,Yeast counts at min: 2,various yeast species; Saccharomyces cerevisiae,2.6 log CFU/ml
same,Yeast counts at min: 5,various yeast species; Saccharomyces cerevisiae,2.3 log CFU/ml
same,Yeast counts at min: 10,various yeast species; Saccharomyces cerevisiae,2.8 log CFU/ml
same,Yeast counts at min: 20,various yeast species; Saccharomyces cerevisiae,2.7 log CFU/ml
same,Yeast counts at min: 30,various yeast species; Saccharomyces cerevisiae,2.3 log CFU/ml
same,Yeast counts at min: 60,various yeast species; Saccharomyces cerevisiae,2.4 log CFU/ml
same,Yeast counts at min: 1,various yeast species; Zygosaccharomyces bailii,4.7 log CFU/ml
same,Yeast counts at min: 2,various yeast species; Zygosaccharomyces bailii,4.6 log CFU/ml
same,Yeast counts at min: 5,various yeast species; Zygosaccharomyces bailii,4.6 log CFU/ml
same,Yeast counts at min: 10,various yeast species; Zygosaccharomyces bailii,4.6 log CFU/ml
same,Yeast counts at min: 20,various yeast species; Zygosaccharomyces bailii,4.5 log CFU/ml
same,Yeast counts at min: 30,various yeast species; Zygosaccharomyces bailii,4.5 log CFU/ml
same,Yeast counts at min: 60,various yeast species; Zygosaccharomyces bailii,4.4 log CFU/ml
CC(=O)CCC(=O)O [2% levulinic acid],Yeast counts at min: 1,various yeast species; Zygosaccharomyces bailii,5.4 log CFU/ml
same,Yeast counts at min: 2,various yeast species; Zygosaccharomyces bailii,5.5 log CFU/ml
same,Yeast counts at min: 5,various yeast species; Zygosaccharomyces bailii,5.4 log CFU/ml
same,Yeast counts at min: 10,various yeast species; Zygosaccharomyces bailii,5.4 log CFU/ml
same,Yeast counts at min: 20,various yeast species; Zygosaccharomyces bailii,5.4 log CFU/ml
same,Yeast counts at min: 30,various yeast species; Zygosaccharomyces bailii,5.4 log CFU/ml
same,Yeast counts at min: 60,various yeast species; Zygosaccharomyces bailii,5.3 log CFU/ml
CC(=O)CCC(=O)O [2.0% levulinic acids],Yeast counts at min: 1,various yeast species; Candida magnoliae,5.9 log CFU/ml
same,Yeast counts at min: 2,various yeast species; Candida magnoliae,5.9 log CFU/ml
same,Yeast counts at min: 5,various yeast species; Candida magnoliae,5.9 log CFU/ml
same,Yeast counts at min: 10,various yeast species; Candida magnoliae,6.0 log CFU/ml
same,Yeast counts at min: 20,various yeast species; Candida magnoliae,6.0 log CFU/ml
same,Yeast counts at min: 30,various yeast species; Candida magnoliae,5.9 log CFU/ml
same,Yeast counts at min: 60,various yeast species; Candida magnoliae,5.8 log CFU/ml
"CCCCCCCCCCCCOS(=O)(=O)[O-].[Na+] [SDS, sodium dodecyl sulfate]",S. typhimurium DT 104 counts,S. typhimurium DT 104; 0 min,7.0 log CFU/ml
same,S. typhimurium DT 104 counts,S. typhimurium DT 104; 1 min,7.0 log CFU/ml
same,S. typhimurium DT 104 counts,S. typhimurium DT 104; 2 min,6.8 log CFU/ml
same,S. typhimurium DT 104 counts,S. typhimurium DT 104; 5 min,6.9 log CFU/ml
same,S. typhimurium DT 104 counts,S. typhimurium DT 104; 10 min,6.8 log CFU/ml
same,S. typhimurium DT 104 counts,S. typhimurium DT 104; 20 min,6.9 log CFU/ml
same,S. typhimurium DT 104 counts,S. typhimurium DT 104; 30 min,6.9 log CFU/ml
same,S. typhimurium DT 104 counts,S. typhimurium DT 104; 60 min,6.9 log CFU/ml
same,L. monocytogenes counts,L. monocytogenes; 0 min,6.6 ± 0.3 log CFU/ml
same,L. monocytogenes counts,L. monocytogenes; 2 min,6.4 ± 0.1 log CFU/ml
same,L. monocytogenes counts,L. monocytogenes; 5 min,6.0 ± 0.1 log CFU/ml
same,L. monocytogenes counts,L. monocytogenes; 10 min,5.0 ± 0.3 log CFU/ml
same,L. monocytogenes counts,L. monocytogenes; 20 min,3.8 ± 0.2 log CFU/ml
same,L. monocytogenes counts,L. monocytogenes; 30 min,3.3 ± 0.1 log CFU/ml
same,Salmonella reduction,S. enteritidis,did not reduce
same,S. enteritidis counts,S. enteritidis; sulfate,7.1 log CFU/ml and 7.0 log CFU/ml and 7.2 log CFU/ml
same,CFU % recovery (as compared to control flask F),"[1]; Experiment A3, 10 min",65%
same,CFU % recovery (as compared to control flask F),"[1]; Experiment A3, 45 min",94%
same,CFU % recovery (as compared to control flask F),"[1]; Experiment A3, 180 min",95%
same,CFU % recovery (as compared to control flask F),"[1]; Experiment A4 absent heat, RT, 0 min",85%
same,CFU % recovery (as compared to control flask F),"[1]; Experiment A4 absent heat, RT, 1 h",90%
same,CFU % recovery (as compared to control flask F),"[1]; Experiment A4 absent heat, RT, 2 h",87%
same,CFU % recovery (as compared to control flask F),"[1]; Experiment A4 absent heat, RT, 3 h",98%
same,CFU % recovery (as compared to control flask F),"[1]; Experiment A4 absent heat, RT, 4 h",79%
same,CFU % recovery (as compared to control flask F),"[1]; Experiment A4 with heat, 65° C., 0 min",48%
same,CFU % recovery (as compared to control flask F),"[1]; Experiment A4 with heat, 65° C., 1 h",53%
same,CFU % recovery (as compared to control flask F),"[1]; Experiment A4 with heat, 65° C., 2 h",74%
same,CFU % recovery (as compared to control flask F),"[1]; Experiment A4 with heat, 65° C., 3 h",68%
same,CFU % recovery (as compared to control flask F),"[1]; Experiment A5 with heat, 65° C., 0 min",71%
same,CFU % recovery (as compared to control flask F),"[1]; Experiment A5 with heat, 65° C., 1 h",69%
same,CFU % recovery (as compared to control flask F),"[1]; Experiment A5 with heat, 65° C., 2 h",53%
same,CFU % recovery (as compared to control flask F),"[1]; Experiment A5 with heat, 65° C., 3 h",71%
same,CFU % recovery (as compared to control flask F),"[1]; Experiment A5 with heat, 65° C., 4 h",54%
acidified sodium chlorite [50 ppm acidified sodium chlorite],reduction of yeast and mold counts on onions,yeasts and molds,< 0.5 log CFU per onion
same,reduction of APC on onions,aerobic plate count,< 0.5 log CFU per onion
same,reduction of S. typhimurium on onions,S. typhimurium,< 0.5 log CFU per onion
